From patent US10787477B2, “Solid form of 4′-thio-2′-fluoronucleoside phosphamide compound and preparation method therefor and use thereof” (SICHUAN KELUN-BIOTECH BIOPHARMACEUTICAL CO., LTD., priority 2016, dated 2020)
≈ marks a conversion by molar mass, not a printed value.

Experiments:
[1] = Drug excretion experiment in mice (radioactivity recovery in urine and feces); assay type: in vivo, ICR mice
Experimental: Crystalline form A having a radioisotope ([^14C] crystalline form A) is formulated as a suspension in 0.5% sodium carboxymethylcellulose (CMC-Na), and ICR mice were administered by single gavage at a dose of 117 μCi/4.08 mg/kg [^14C] crystalline form A. The absorption and excretion characteristics of crystalline form A were examined by measuring the radioactivity recovery in urine and feces.

[2] = Equilibrium solubility study in deionized water; assay type: physicochemical; settings: for crystal transformation (XRPD of the solid): dispersed in water for 24 hours
Experimental: About 2.0 to 5.0 mg of each of crystalline form A, crystalline form B and crystalline form D of the compound of Formula (I) was weighed, added to a 3 ml vial, and added with 1.0 ml of deionized water. The resulting suspension was then placed in a rotary incubator (rotation speed was 25 rpm), and equilibrated in a biochemical incubator at 25° C. for 24 hours before 0.8 ml of the suspension was taken. The suspension was centrifuged (6000 rpm, 15 minutes), the supernatant was detected by HPLC for solubility, and the XRPD pattern of the solid was detected.

[3] = Solid state stability at 40° C./75% RH; assay type: physicochemical; settings: open container, 8 days
Experimental: A suitable amount of crystalline form A of the compound of Formula (I) was weighed as a test sample, and it was left in an open container for 8 days under conditions of 40° C./75% RH (RH means relative humidity). The XRPD pattern of the test sample after the treatment was detected, and the purity was measured by HPLC.

Light experiment = assay type: physicochemical; settings: light intensity of 4500 1×, 25° C., RH 25%
Experimental: (§1) Crystalline form A of the compound of Formula (I) was placed under the conditions of a light intensity of 4500 1×, 25° C., and RH 25% for 30 days, and samples were taken on Day 0, 5, 11 and 30, respectively, to observe changes in the properties of the samples. The specific optical rotation was measured with a polarimeter, the loss on drying was measured, and the total impurity content was measured by HPLC.

[4] = High temperature experiment; assay type: physicochemical; settings: 60° C.
Experimental: as §1, with “was allowed to stand at a high temperature” for “was placed under the conditions”, “of 60° C.” for “of a light intensity of 4500 1×, 25° C., and RH 25%”, “taken at” for “taken on”, “5, 10,” for “5, 11”

High humidity experiment = assay type: physicochemical; settings: 25° C. and RH 75%
Experimental: as §1, with “under a high humidity condition” for “under the conditions”, “of” for “of a light intensity of 4500 1×,”, “25° C.” for “25° C.,”, “RH 75%” for “RH 25%”, “taken at” for “taken on”, “5, 10,” for “5, 11”

[5] = Stability relationship (slurry of crystalline forms in water pre-saturated with form A); assay type: physicochemical; settings: slurried in H2O pre-saturated with crystalline form A, room temperature, about 4 days
Experimental: An equal weight of each of crystalline forms A, B and D (8 mg each) was weighed and respectively added to a H2O solution (0.3 ml) pre-saturated with a sample of crystalline form A at room temperature, and the resulting suspension was slurried at room temperature for about 4 days before isolation of the solid. The wet and dry samples were respectively subjected to XRPD pattern detection.

[6] = Pharmacokinetic experiment in mice; assay type: in vivo, ICR mice; settings: single gavage
Experimental: Crystalline form A of the compound of Formula (I) was formulated as a suspension in 0.5% sodium carboxymethylcellulose (CMC-Na), and ICR mice were administered by single gavage to investigate the pharmacokinetic characteristics. The single gavage doses were 2 mg/kg, 4 mg/kg and 8 mg/kg, respectively.
The pharmacokinetic parameters were each calculated according to the concentration-time curve of metabolite I in plasma.

[7] = Pharmacokinetic experiment in beagle dogs; assay type: in vivo; settings: single gavage
Experimental: Crystalline form A of the compound of Formula (I) was formulated as a suspension in 0.5% CMC-Na, and administered by single gavage to beagle dogs. The single gavage doses were 0.1 mg/kg, 0.2 mg/kg and 0.4 mg/kg, respectively.

[8] = inferred from urine radioactivity recovery

CC(C)OC(=O)[C@H](C)N[P@](=O)(OC[C@H]1S[C@@H](n2ccc(N)nc2=O)[C@@H](F)[C@@H]1O)Oc1ccccc1 [[^14C] crystalline form A]
radioactivity recovery in urine ([1]; single gavage 117 μCi/4.08 mg/kg, within 0 to 120 hours): 78.7%
radioactive substances excreted in urine and feces, of the administered amount ([1]; single gavage, within 48 hours after administration): 84.5%

CC(C)OC(=O)[C@H](C)N[P@](=O)(OC[C@H]1S[C@@H](n2ccc(N)nc2=O)[C@@H](F)[C@@H]1O)Oc1ccccc1 [crystalline form A, (S)-isopropyl 2-(((S)-(((2R,3S,4S,5R)-5-(4-amino-2-oxopyrimidin-1(2H)-yl)-4-fluoro-3-hydroxytetrahydrothiophen-2-yl)methoxy)(phenoxy)phosphoryl)amino)propanoate]
solubility at 24 h ([2]; deionized water, 25 °C, water, thermodynamic from solid, deionized water, after 24 hours, HPLC): ~1000 µg/mL (≈ 1880 µM)
crystal transformation (XRPD of the solid) ([2]; 25° C.): did not undergo crystal transformation
crystal transformation (XRPD) [3]: did not undergo crystal transformation
relative purity of the sample (HPLC) [3]: 99.9%
appearance (Light experiment; 30 days): no change in the appearance
variation in the specific optical rotation (Light experiment; Day 0 to Day 30): ≤ 3 °
loss on drying % (Light experiment; different time points): ≤ 1.0%
total impurity content detected by HPLC (Light experiment; different time points): remained substantially unchanged
appearance ([4]; 30 days): no change in the appearance
variation in the specific optical rotation ([4]; Day 0 to Day 30): ≤ 2 °
loss on drying % ([4]; different time points): ≤ 1.07%
total impurity content detected by HPLC ([4]; different time points): remained substantially unchanged
appearance (High humidity experiment; 30 days): no change in the appearance
variation in the specific optical rotation (High humidity experiment; Day 0 to Day 30): ≤ 1 °
loss on drying % (High humidity experiment; different time points): ≤ 1.0%
total impurity content detected by HPLC (High humidity experiment; different time points): remained substantially unchanged
stability relationship / conversion of crystalline form (XRPD) [5]: more stable at room temperature
metabolism upon entering the body [6]: rapidly metabolized as pharmacologically active metabolite I
metabolism upon entering the body [7]: rapidly metabolized as pharmacologically active metabolite I
absolute bioavailability by intragastric administration [1, 8]: above 78.7%
proportion of the drug ingredient absorbed into the blood by oral administration [1, 8]: at least 78.7%

CC(C)OC(=O)[C@H](C)N[P@](=O)(OC[C@H]1S[C@@H](n2ccc(N)nc2=O)[C@@H](F)[C@@H]1O)Oc1ccccc1 [crystalline form B, (S)-isopropyl 2-(((S)-(((2R,3S,4S,5R)-5-(4-amino-2-oxopyrimidin-1(2H)-yl)-4-fluoro-3-hydroxytetrahydrothiophen-2-yl)methoxy)(phenoxy)phosphoryl)amino)propanoate]
solubility in water ([2]; deionized water, 25° C., after 24 hours, HPLC): ~1800 µg/mL (≈ 3390 µM)
crystal transformation (XRPD of the solid) ([2]; 25° C.): did not undergo crystal transformation
stability relationship / conversion of crystalline form (XRPD) [5]: converted to crystalline form A

CC(C)OC(=O)[C@H](C)N[P@](=O)(OC[C@H]1S[C@@H](n2ccc(N)nc2=O)[C@@H](F)[C@@H]1O)Oc1ccccc1 [crystalline form D, (S)-isopropyl 2-(((S)-(((2R,3S,4S,5R)-5-(4-amino-2-oxopyrimidin-1(2H)-yl)-4-fluoro-3-hydroxytetrahydrothiophen-2-yl)methoxy)(phenoxy)phosphoryl)amino)propanoate]
crystal transformation (XRPD of the solid) ([2]; 25° C.): underwent crystal transformation
stability relationship / conversion of crystalline form (XRPD) [5]: converted to crystalline form A
